Experimental data: patent US20200352854A1, “DEVICES AND METHODS FOR PREVENTING AND INHIBITING PERIODONTAL DISEASE” (Fixed Focus LLC, priority 2019, published 2020)

Assay: water solubility of complex carbohydrate agents
Assay type: physicochemical
Description: Specific solubilities are: dextran, 50 mg/ml; hydroxymethylcellulose, 10 mg/ml; cellulose, 0 mg/ml; oat beta glucan, 20 mg/ml.

Substance | solubility [mg/mL]
hydroxymethylcellulose | 10
oat beta glucan | 20
